From patent US8648088B2, “Ethynyl nitrogen containing heteroaryl pyrazolidin-3-one derivatives” (Hoffmann-La Roche Inc., priority 2011, dated 2014)

How the values were obtained:
human mGlu5a receptor [1] = target: T1, human mGlu5a receptor (Homo sapiens, UniProt P41594); assay: Intracellular Ca2+ mobilization assay (mGlu5 PAM); assay type: cell-based; parameters: expressed in transfected cells; conditions: for Emax: HEK293, maximal response in % of maximal stimulatory effect of saturating L-glutamate, HEK-293 human mGlu5a, read-out: Eff. (%); for EC50: HEK-293 cells stably expressing human mGlu5a, L-glutamate added at EC20, read-out: EC50 (nM) mGlu5PAM
Method: A monoclonal HEK-293 cell line stably transfected with a cDNA encoding for the human mGlu5a receptor was generated; for the work with mGlu5 Positive Allosteric Modulators (PAMs), a cell line with low receptor expression levels and low constitutive receptor activity was selected to allow the differentiation of agonistic versus PAM activity. Cells were cultured according to standard protocols (Freshney, 2000) in Dulbecco's Modified Eagle Medium with high glucose supplemented with 1 mM glutamine, 10% (vol/vol) heat-inactivated bovine calf serum, Penicillin/Streptomycin, 50 μg/ml hygromycin and 15 μg/ml blasticidin (all cell culture reagents and antibiotics from Invitrogen, Basel, Switzerland).
About 24 hrs before an experiment, 5×10^4 cells/well were seeded in poly-D-lysine coated, black/clear-bottomed 96-well plates. The cells were loaded with 2.5 μM Fluo-4AM in loading buffer (1×HBSS, 20 mM HEPES) for 1 hr at 37° C. and washed five times with loading buffer. The cells were transferred into a Functional Drug Screening System 7000 (Hamamatsu, Paris, France), and 11 half logarithmic serial dilutions of test compound at 37° C. were added and the cells were incubated for 10-30 min with on-line recording of fluorescence. Following this pre-incubation step, the agonist L-glutamate was added to the cells at a concentration corresponding to EC20 (typically around 80 μM) with on-line recording of fluorescence; in order to account for day-to-day variations in the responsiveness of cells, the EC20 of glutamate was determined immediately ahead of each experiment by recording of a full dose-response curve of glutamate.
Responses were measured as peak increase in fluorescence minus basal (i.e. fluorescence without addition of L-glutamate), normalized to the maximal stimulatory effect obtained with saturating concentrations of L-glutamate. Graphs were plotted with the % maximal stimulatory using XLfit, a curve fitting program that iteratively plots the data using Levenburg Marquardt algorithm. The single site competition analysis equation used was y=A+((B−A)/(1+((x/C)D))), where y is the % maximal stimulatory effect, A is the minimum y, B is the maximum y, C is the EC50, x is the log 10 of the concentration of the competing compound and D is the slope of the curve (the Hill Coefficient). From these curves the EC50 (concentration at which half maximal stimulation was achieved), the Hill coefficient as well as the maximal response in % of the maximal stimulatory effect obtained with saturating concentrations of L-glutamate were calculated.
A depression of the signal observed after addition of the EC20 concentration of L-glutamate was indicative of an inhibitory activity of the test compound.
In the table below are shown the prepared compounds 1-24 with corresponding results (EC50 in nM).

human mGlu5a receptor [2] = target: T1, human mGlu5a receptor; assay: [3H]MPEP binding competition on human mGlu5a receptor membranes; parameters: expressed in transfected cells; host or cells: EBNA cells (transient), membrane homogenates; conditions: [3H]MPEP (2 nM) competition, EBNA cell membranes, 1 h at 4° C.; read-out: Human mGluR5 Ki
Method: Examples 18, 20-22 have been tested on human mGluR5 receptor using the following method:
For binding experiments, cDNA encoding human mGlu 5a receptor was transiently transfected into EBNA cells using a procedure described by Schlaeger and Christensen [Cytotechnology 15:1-13 (1998)]. Cell membrane homogenates were stored at −80° C. until the day of assay where upon they were thawed and resuspended and polytronized in 15 mM Tris-HCl, 120 mM NaCl, 100 mM KCl, 25 mM CaCl2, 25 mM MgCl2 binding buffer at pH 7.4 to a final assay concentration of 20 μg protein/well.
Saturation isotherms were determined by addition of twelve [^3H]MPEP concentrations (0.04-100 nM) to these membranes (in a total volume of 200 μl) for 1 h at 4° C. Competition experiments were performed with a fixed concentration of [^3H]MPEP (2 nM) and IC50 values of test compounds evaluated using 11 concentrations (0.3-10,000 nM). Incubations were performed for 1 h at 4° C.
At the end of the incubation, membranes were filtered onto unifilter (96-well white microplate with bonded GF/C filter preincubated 1 h in 0.1% PEI in wash buffer, Packard BioScience, Meriden, Conn.) with a Filtermate 96 harvester (Packard BioScience) and washed 3 times with cold 50 mM Tris-HCl, pH 7.4 buffer. Nonspecific binding was measured in the presence of 10 μM MPEP. The radioactivity on the filter was counted (3 min) on a Packard Top-count microplate scintillation counter with quenching correction after addition of 45 μl of microscint 40 (Canberra Packard S.A., Zürich, Switzerland) and shaking for 20 min.
For binding experiments the Ki values of the compounds tested are given. The Ki value is defined by the following formula: Ki=IC50/[1+L/Kd] in which the IC50 values are those concentrations of the compounds tested which cause 50% inhibition of the competing radioligand ([^3H]MPEP). L is the concentration of radioligand used in the binding experiment and the Kd value of the radioligand is empirically determined for each batch of membranes prepared.

T1 sequence (P41594 21-1180 isoform P41594-2 limits assumed): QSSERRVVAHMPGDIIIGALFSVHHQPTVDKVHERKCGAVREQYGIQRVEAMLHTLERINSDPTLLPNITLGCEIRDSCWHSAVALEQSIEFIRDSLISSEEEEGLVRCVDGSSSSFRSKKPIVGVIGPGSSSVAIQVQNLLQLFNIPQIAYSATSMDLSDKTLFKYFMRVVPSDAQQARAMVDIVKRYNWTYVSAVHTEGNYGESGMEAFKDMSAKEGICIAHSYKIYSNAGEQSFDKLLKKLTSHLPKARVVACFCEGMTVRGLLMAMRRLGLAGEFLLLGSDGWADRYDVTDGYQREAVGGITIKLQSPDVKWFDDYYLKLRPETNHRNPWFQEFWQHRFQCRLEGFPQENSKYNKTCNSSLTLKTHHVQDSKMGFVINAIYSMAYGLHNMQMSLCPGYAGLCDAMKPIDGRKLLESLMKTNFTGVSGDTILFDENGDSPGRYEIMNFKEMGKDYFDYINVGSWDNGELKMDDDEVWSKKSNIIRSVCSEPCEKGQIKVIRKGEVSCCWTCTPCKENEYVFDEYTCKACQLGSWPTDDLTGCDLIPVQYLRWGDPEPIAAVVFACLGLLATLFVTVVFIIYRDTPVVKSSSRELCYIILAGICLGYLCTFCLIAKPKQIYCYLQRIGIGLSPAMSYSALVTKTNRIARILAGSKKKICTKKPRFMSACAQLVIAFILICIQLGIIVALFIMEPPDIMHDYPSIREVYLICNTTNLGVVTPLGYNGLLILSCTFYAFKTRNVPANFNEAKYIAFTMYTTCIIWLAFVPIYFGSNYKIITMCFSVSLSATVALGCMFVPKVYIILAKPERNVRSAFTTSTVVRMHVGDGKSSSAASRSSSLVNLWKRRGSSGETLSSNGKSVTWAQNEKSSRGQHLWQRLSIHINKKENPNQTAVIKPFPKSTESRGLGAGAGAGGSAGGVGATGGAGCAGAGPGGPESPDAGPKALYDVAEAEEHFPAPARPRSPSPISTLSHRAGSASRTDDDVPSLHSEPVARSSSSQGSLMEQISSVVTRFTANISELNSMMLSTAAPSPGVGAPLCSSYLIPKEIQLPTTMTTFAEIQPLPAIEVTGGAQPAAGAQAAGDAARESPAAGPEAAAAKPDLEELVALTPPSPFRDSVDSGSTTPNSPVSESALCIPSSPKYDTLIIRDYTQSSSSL

| Structure (SMILES) | Emax (human mGlu5a receptor [1]) [%] | EC50 (human mGlu5a receptor [1]) [nM] | Ki (human mGlu5a receptor [2]) [µM] |
| --- | --- | --- | --- |
| CC1(C(F)(F)F)CC(=O)N(c2ccc(C#Cc3ccccc3)cn2)N1 (racemic) [Example 24, (RS)-5-Methyl-2-(5-phenylethynyl-pyridin-2-yl)-5-trifluoromethyl-pyrazolidin-3-one] | 92 | 71 | – |
| O=C1CC2CCCN2N1c1ncc(C#Cc2cccc(F)c2)cn1 (racemic) [Example 12, (RS)-1-[5-(3-Fluoro-phenylethynyl)-pyrimidin-2-yl]-tetrahydro-pyrrolo[1,2-b]pyrazol-2-one] | 59 | 22 | – |
| CN1N(c2ncc(C#Cc3ccc(F)cc3)cn2)C(=O)CC1(C)C [Example 16, 2-[5-(4-Fluoro-phenylethynyl)-pyrimidin-2-yl]-1,5,5-trimethyl-pyrazolidin-3-one] | 69 | 56 | – |
| CC1(C)CC(=O)N(c2ccc(C#Cc3ccc(F)cc3)cn2)N1 [Example 8, 2-[5-(4-Fluoro-phenylethynyl)-pyridin-2-yl]-5,5-dimethyl-pyrazolidin-3-one] | 38 | 13 | – |
| CN1N(c2ccc(C#Cc3cccc(F)c3)cn2)C(=O)CC1(C)C [Example 6, 2-[5-(3-Fluoro-phenylethynyl)-pyridin-2-yl]-1,5,5-trimethyl-pyrazolidin-3-one] | 109 | 36 | – |
| CN1N(c2ccc(C#Cc3cccc(Cl)c3)cn2)C(=O)CC1(C)C [Example 7, 2-[5-(3-Chloro-phenylethynyl)-pyridin-2-yl]-1,5,5-trimethyl-pyrazolidin-3-one] | 55 | 90 | – |
| CC1(C)CC(=O)N(c2ccc(C#Cc3cc(F)ccc3F)nn2)N1 [Example 19, 2-[6-(2,5-Difluoro-phenylethynyl)-pyridazin-3-yl]-5,5-dimethyl-pyrazolidin-3-one] | 86 | 86 | – |
| CC(C)C1CC(=O)N(c2ccc(C#Cc3ccccc3)cn2)N1 (racemic) [Example 2, (RS)-5-Isopropyl-2-(5-phenylethynyl-pyridin-2-yl)-pyrazolidin-3-one] | 73 | 24 | – |
| CCN1C(C(C)C)CC(=O)N1c1ccc(C#Cc2ccccc2)cn1 (racemic) [Example 23, (RS)-1-Ethyl-5-isopropyl-2-(5-phenylethynyl-pyridin-2-yl)-pyrazolidin-3-one] | 46 | 106 | – |
| CN1N(c2ccc(C#Cc3ccccc3)cn2)C(=O)CC1(C)C [Example 3, 1,5,5-Trimethyl-2-(5-phenylethynyl-pyridin-2-yl)-pyrazolidin-3-one] | 96 | 30 | – |
| O=C1CC2CCCN2N1c1ccc(C#Cc2ccccc2)cn1 (racemic) [Example 10, (RS)-1-(5-Phenylethynyl-pyridin-2-yl)-tetrahydro-pyrrolo[1,2-b]pyrazol-2-one] | 73 | 35 | – |
| CN1N(c2ncc(C#Cc3ccccc3)cn2)C(=O)CC1(C)C [Example 14, 1,5,5-Trimethyl-2-(5-phenylethynyl-pyrimidin-2-yl)-pyrazolidin-3-one] | 66 | 33 | – |
| CCN1N(c2ccc(C#Cc3ccccc3)cn2)C(=O)CC1(C)C [Example 21, 1-Ethyl-5,5-dimethyl-2-(5-phenylethynyl-pyridin-2-yl)-pyrazolidin-3-one] | – | – | 0.0535 |
| CN1N(c2ncc(C#Cc3cc(F)ccc3F)cn2)C(=O)CC1(C)C [Example 17, 2-[5-(2,5-Difluoro-phenylethynyl)-pyrimidin-2-yl]-1,5,5-trimethyl-pyrazolidin-3-one] | 47 | 35 | – |
| O=C1CC2CCCN2N1c1ncc(C#Cc2ccc(F)cc2)cn1 (racemic) [Example 13, (RS)-1-[5-(4-Fluoro-phenylethynyl)-pyrimidin-2-yl]-tetrahydro-pyrrolo[1,2-b]pyrazol-2-one] | 58 | 41 | – |
| CC1(C)CC(=O)N(c2ccc(C#Cc3cc(F)ccc3F)cn2)N1 [Example 20, 2-[5-(2,5-Difluoro-phenylethynyl)-pyridin-2-yl]-5,5-dimethyl-pyrazolidin-3-one] | – | – | 0.0697 |
| CC1(C)CC(=O)N(c2ccc(C#Cc3cccc(F)c3)cn2)N1 [Example 5, 2-[5-(3-Fluoro-phenylethynyl)-pyridin-2-yl]-5,5-dimethyl-pyrazolidin-3-one] | 31 | 13 | – |
| CN1N(c2ccc(C#Cc3ccnc(Cl)c3)cn2)C(=O)CC1(C)C [Example 18, 2-[5-(2-Chloro-pyridin-4-ylethynyl)-pyridin-2-yl]-1,5,5-trimethyl-pyrazolidin-3-one] | – | – | 0.103 |
| CC1(C)CC(=O)N(c2ccc(C#Cc3ccccc3)cn2)N1 [Example 1, 5,5-Dimethyl-2-(5-phenylethynyl-pyridin-2-yl)-pyrazolidin-3-one] | 60 | 7 | – |
| Cc1cccc(C#Cc2ccc(N3C(=O)CC(C)(C)N3C)nc2)c1 [Example 4, 1,5,5-Trimethyl-2-(5-m-tolylethynyl-pyridin-2-yl)-pyrazolidin-3-one] | 72 | 72 | – |
| CN1N(c2ncc(C#Cc3cccc(F)c3)cn2)C(=O)CC1(C)C [Example 15, 2-[5-(3-Fluoro-phenylethynyl)-pyrimidin-2-yl]-1,5,5-trimethyl-pyrazolidin-3-one] | 61 | 34 | – |
| O=C1CC2CCCN2N1c1ncc(C#Cc2ccccc2)cn1 (racemic) [Example 11, (RS)-1-(5-Phenylethynyl-pyrimidin-2-yl)-tetrahydro-pyrrolo[1,2-b]pyrazol-2-one] | 55 | 60 | – |
| CC1(C)CC(=O)N(c2ncc(C#Cc3ccccc3)cn2)N1 [Example 9, 5,5-Dimethyl-2-(5-phenylethynyl-pyrimidin-2-yl)-pyrazolidin-3-one] | 39 | 46 | – |
